Here are results for two compounds from patent publication US7772255B2, “Method of treating tumors with azaxanthones” (Supratek Pharma, Inc., priority 2005, dated 2010).

A short description of series [1]: Chemical stability of Amlexanox sodium salt solution (HPLC). The class given is physicochemical. The settings on record: 20 mg Amlexanox sodium salt in 2 mL Tris buffer pH 7.2; 0.05 molar equivalent of the listed compound; 72 hours, ambient light, access to air; HPLC peak area. The protocol:
20 mg of crystalline Amlexanox sodium salt was dissolved in a clear glass test tube in 2 mL of Tris buffer, pH 7.2. For each of the stabilizing compounds listed in the Table below, 0.05 molar equivalent of the compound was added to the solution, mixed until dissolved, and left under ambient light, and with access to the air. Concentration of Amlexanox in the sample was determined by HPLC right after preparation, and after 72 hours. The chemical stability of Amlexanox was evaluated by comparison of area under the peak of amlexanox from the two analyses.

Series [2] can be described thus: Pharmacokinetics and bioavailability in normal mice. The class given is in vivo, mouse. The settings on record: for AUC / Cmax / MRT / clearance / half-life / Vd / bioavailability: female; for Vd: read-out: Vss; for bioavailability: C57BL/6, plasma, po, mouse, sodium salt, read-out: Bioavailability for oral administration. The protocol: Female C57BL/6 mice were used at 6 to 7 weeks of age. The animals were given food (Purina mouse chow, Pro Lab PMH 4018, Trademark of Agway, Syracuse, N.Y., USA) and water ad libitum. The mice were kept at five per cage under light (12 h light/dark cycle) and temperature (22±1° C.) controlled environment. The animal studies were conducted according to the “Guidelines for Care and Use of Experimental Animals”.
Amlexanox sodium salt dosing solutions for oral administration were prepared by dissolving amlexanox sodium salt, prepared according to Example 10, in distilled water. amlexanox sodium salt dosing solutions for i.v. administration were prepared by dissolving amlexanox sodium salt, prepared according to Example 10, in isotonic solution (0.9% NaCl). Amlexanox meglumine formulation dosing solutions for oral administration were prepared by dissolving amlexanox meglumine formulation F1, prepared according to Example 12, in distilled water. Amlexanox meglumine formulation dosing solutions for i.v. administration were prepared by dissolving amlexanox meglumine formulation F1, prepared according to Example 13, in isotonic solution (0.9% NaCl). 1 mg/mL solution of amlexanox was used for dosing 10 mg/kg, and 10 mg/mL solution was used for dosing 100 mg/kg.
Amlexanox-X dosing solutions were administered i.v. and orally in normal mice (four animals per each time point). After various time intervals (15, 30 min and 1, 3, 6 and 8 h for Amlexanox-X Na salt and 15, 30 min, 1, 2 and 6 h for Amlexanox-X+MG) post-injection, blood and major organs (liver, kidney, lung and brain) were collected. Then, blood was immediately centrifuged, and plasma was separated. The plasma and tissue samples were immediately frozen in dry ice and stored at −80° C. until further use.
The defrosted plasma samples were centrifuged at 2000 g for 5 min, and aliquots (10 μL) of each sample were transferred into 1.5-ml plastic tubes. The samples were diluted with PBS in various amounts of times and aliquots of 100 μL were transferred into the other 1.5-ml plastic tubes. The samples were extracted with 1 mL of 100% acetonitrile for 10 min on 180° rotator. Then, the tubes were centrifuged at 10,000 g for 15 min.
The supernatant was separated to glass tubes and evaporated in a stream of nitrogen at […]. until dryness. The dried samples were kept at −20° C. until HPLC analysis. The samples were reconstituted in 100 μL of mobile phase analyze before analyze by HPLC.
The samples were analysed by HPLC using 250×4.6 mm, Phenomenex C18 Luna, 5 micron column, 1 mL/min flow rate of mobile phase 73% of 25 mM sodium phosphate pH 7.5 and 27% acetonitrile; fluorescent deyection λexcitation=348 nm, λemission=404 nm.
The concentrations of amlexanox in samples were determined by comparison with calibration curve obtained from spiked mouse plasma samples using the same analytical method. The areas under the curves (AUC) of amlexanox were calculated by trapezoidal method. Main pharmacokinetic parameters of amlexanox and bioavailability if amlexanox Na salt and amlexanox with meglumine formulation are shown in Tables below.

The next series has as its system B16F10/DX cells. The series can be described thus: B16 experimental metastasis model (Example 26). The class given is in vivo, mouse. Particulars: B16F10/DX i.v. in C57BL/6 mice; Amlexanox 100 mg/kg daily p.o.; mean±SEM. The method, then:
Amlexanox solution for injections was prepared according to the Example 4. B16F10/DX cell (2.0×10^5 cells per animal) were inoculated intravenously in female C57BL//6 mice (6-7 weeks old) and animals were then divided randomly into 4 groups (n=9 except for control group): 1) intact control (n=12, saline); 2) Amlexanox (100 mg/kg, daily p.o. administration); 3) TPT (2.0 mg/kg i.v. administration on day 1, 4, and 7); 5) Amlexanox (daily p.o. 100 mg/kg)+TPT (i.v. 2.0 mg/kg on day 1, 4, and 7). Intact control received oral administration with 10 ml/kg (volume/body weight) of saline, while Amlexanox was administrated orally and daily with a dose of 100 mg/kg in a volume of 10 ml/kg. The treatments were started from the day following the tumor cell implantation until the end of the protocol. However, TPT was administrated intravenously only on day 1, 4, and 7 after tumor implantation. The animal body weight was recorded as an index of treatment toxicity during the experiment.
The data in Table show metastasis formation in the lung in the mice implanted with B16F10/DX cells. The data are expressed as mean±SEM for the number of metastatic sites on the lung surface.

The mark [3] stands for this setting: C57BL/6, iv, mouse plasma, i.v., 10 mg/kg.
Where [4] appears, read: C57BL/6, iv, mouse plasma, i.v., 100 mg/kg.
[5] abbreviates: C57BL/6, mouse plasma, oral, 10 mg/kg.
The mark [6] stands for this setting: C57BL/6, mouse plasma, oral, 100 mg/kg.

Counter-ions that a name gives are not always drawn. Like-named read-outs stand apart in the source and are kept apart here.

As usually defined, the AUC is concentration integrated over time. A lower AUC goes with low exposure. Broadly, the Cmax is the highest concentration seen after dosing. The term MRT denotes the average time that molecules of a dose stay in the body. In general, clearance refers to the volume of plasma or blood freed of the substance per unit of time. Low readings indicate a low capacity for elimination, high ones a high capacity for elimination. One may read the half-life as the time needed for the level to fall by half in the phase considered. With `CC(C)c1ccc2oc3nc(N)c(C(=O)O)cc3c(=O)c2c1` [Amlexanox (salt), 2-amino-7-isopropyl-1-azaxanthone-3-carboxylic acid sodium salt], in series [1], the “Retained Amlexnox” value worked out at 93.8%. In series [2] (setting [3]), this compound showed an AUC of 31.3 µg·h/mL, a Cmax of 55.7 µg/mL, a mean residence time (MRT) of 0.5 h and a clearance of 5 mL/min/kg. For the same compound, in series [2] (setting [3]), the half-life is 24 min and the Vd came out at 0.2 L/kg. In series [2] (setting [4]), this compound showed an AUC of 734 µg·h/mL, a Cmax of 590 µg/mL, an MRT of 1.2 h and a clearance of 0.167 mL/min/kg. In series [2] (setting [4]), the half-life was 48 min and the Vd was determined as 0.02 L/kg. Moreover, the bioavailability in series [2] (10 mg/kg) is 61.7%. In addition, the bioavailability in series [2] (100 mg/kg) stood at 41.1%. In series [2] (setting [5]), the AUC is 19.3 µg·h/mL, the concentration peaked (Cmax) at 17.6 µg/mL, the mean residence time (MRT) amounted to 1.6 h and the half-life was 66 min. In series [2] (setting [6]), the AUC amounted to 302 µg·h/mL, the Cmax was determined as 206 µg/mL, the MRT turned out to be 2.2 h and the half-life is 90 min. In series [2] (mouse plasma, oral, 10 mg/kg), the CL was determined as 0.5 L/kg/h and the Vss was found to be 0.8 L/kg. Further, in series [2] (mouse plasma, oral, 100 mg/kg), the Vss is listed as 0.07 L/kg.
Turning to `CC(C)c1ccc2oc3nc(N)c(C(=O)O)cc3c(=O)c2c1` [Amlexanox, 2-amino-7-isopropyl-1-azaxanthone-3-carboxylic acid], the “Lung Metastasis Number per Animal” value in the series with B16F10/DX cells was found to be 71.3 ± 15.5.
